Data reported in ChEMBL document CHEMBL1137063, “The impact of spacer structure on 5-HT7 and 5-HT1A receptor affinity in the group of long-chain arylpiperazine ligands” (Bioorg Med Chem Lett, 2004).

What was measured:
[1] = biological target: 5-hydroxytryptamine receptor 7 (Rattus norvegicus, UniProt P32305); assay: In vitro ability to displace the radioligand [3H]5-CT from binding to rat 5-hydroxytryptamine 7 receptor
[2] = biological target: T1, 5-hydroxytryptamine receptor 1A (Rattus norvegicus, UniProt P19327); assay: In vitro ability to displace the radioligand [3H]-OH-DPAT from binding to rat 5-hydroxytryptamine 1A receptor
T1 sequence (P19327 whole entry): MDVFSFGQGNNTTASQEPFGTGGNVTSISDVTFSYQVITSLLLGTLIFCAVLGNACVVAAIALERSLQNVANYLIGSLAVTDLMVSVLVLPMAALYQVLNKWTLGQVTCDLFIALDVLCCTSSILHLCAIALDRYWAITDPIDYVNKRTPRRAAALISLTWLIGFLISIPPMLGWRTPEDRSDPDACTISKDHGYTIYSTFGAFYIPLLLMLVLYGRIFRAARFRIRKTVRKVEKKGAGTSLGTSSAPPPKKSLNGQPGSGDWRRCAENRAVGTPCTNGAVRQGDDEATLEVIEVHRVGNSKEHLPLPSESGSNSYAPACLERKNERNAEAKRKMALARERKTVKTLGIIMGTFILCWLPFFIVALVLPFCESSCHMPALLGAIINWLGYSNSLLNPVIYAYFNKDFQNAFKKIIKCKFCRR

Chain of 5-hydroxytryptamine receptor 7 (P32305 whole entry): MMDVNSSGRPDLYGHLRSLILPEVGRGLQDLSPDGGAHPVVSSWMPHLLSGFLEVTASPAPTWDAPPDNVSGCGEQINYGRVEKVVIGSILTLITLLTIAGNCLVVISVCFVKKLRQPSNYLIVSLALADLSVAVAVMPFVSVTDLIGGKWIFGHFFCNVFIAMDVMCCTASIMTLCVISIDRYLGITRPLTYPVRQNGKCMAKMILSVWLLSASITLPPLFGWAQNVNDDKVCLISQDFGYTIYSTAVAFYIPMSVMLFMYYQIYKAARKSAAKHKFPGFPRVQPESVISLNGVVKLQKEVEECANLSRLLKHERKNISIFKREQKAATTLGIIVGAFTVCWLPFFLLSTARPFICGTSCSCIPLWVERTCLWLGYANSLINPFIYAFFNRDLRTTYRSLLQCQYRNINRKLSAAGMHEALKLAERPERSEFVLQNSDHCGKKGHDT

Ki [1]	Ki [2]	Structure (SMILES)
11500 nM	15.2 nM	COc1ccccc1N1CCN([C@H]2CC[C@H](N3C(=O)CCC3=O)CC2)CC1
63 nM	29 nM	COc1ccccc1N1CCN(C/C=C/CN2C(=O)CCC2=O)CC1
910 nM	415 nM	COc1ccccc1N1CCN(Cc2ccccc2CN2C(=O)CCC2=O)CC1
367 nM	405 nM	COc1ccccc1N1CCN(Cc2ccccc2CN2C(=O)c3ccccc3C2=O)CC1
2040 nM	8 nM	COc1ccccc1N1CCN([C@H]2CC[C@H](N3C(=O)c4ccccc4C3=O)CC2)CC1
353 nM	77 nM	COc1ccccc1N1CCN(C/C=C\CN2C(=O)c3ccccc3C2=O)CC1
36 nM	5 nM	COc1ccccc1N1CCN(C/C=C/CN2C(=O)c3ccccc3C2=O)CC1
790 nM	157 nM	COc1ccccc1N1CCN(C/C=C\CN2C(=O)CCC2=O)CC1
